Assay results as given in patent publication US7700552B2, “Macrocyclic inhibitors of hepatitis C virus” (Medivir AB, priority 2005, dated 2010).

How the values were obtained:
[1] = system: HCV replicons (NS3-NS5B regions of HCV type 1b) in Huh-7 luc/neo cells; experiment: HCV replicon assay (Huh-Luc cells, luciferase readout); type: cell-based; conditions: Hepatitis C virus, Huh-7, 72 h, HCV type 1b replicon, three days incubation, luciferase activity
Description: The compounds of formula (I) were examined for activity in the inhibition of HCV RNA replication in a cellular assay. […] The cellular assay was based on a bicistronic expression construct, as described by Lohmann et al. (1999) Science vol. 285 pp. 110-113 with modifications described by Krieger et al. (2001) Journal of Virology 75: 4614-4624, in a multi-target screening strategy. In essence, the method was as follows.
The assay utilized the stably transfected cell line Huh-7 luc/neo (hereafter referred to as Huh-Luc). This cell line harbors an RNA encoding a bicistronic expression construct comprising the wild type NS3-NS5B regions of HCV type 1b translated from an Internal Ribosome Entry Site (IRES) from encephalomyocarditis virus (EMCV), preceded by a reporter portion (FfL-luciferase), and a selectable marker portion (neo^R, neomycine phosphotransferase). […]
The replicon cells were plated in 384 well plates in the presence of the test and control compounds which were added in various concentrations. Following an incubation of three days, HCV replication was measured by assaying luciferase activity (using standard luciferase assay substrates and reagents and a Perkin Elmer ViewLux™ ultraHTS microplate imager). […] The inhibitory activity of the compound on luciferase activity was monitored on the Huh-Luc cells, enabling a dose-response curve for each test compound.

[2] = target: T1, full-length hepatitis C NS3 protease enzyme with NS4A cofactor (HCV NS3/4A protease complexes) (Hepatitis C virus genotype 1a, UniProt P27958); experiment: HCV NS3/4A protease inhibition assay (enzymatic); type: biochemical; conditions: full-length NS3 1 nM, 25 μM NS4A cofactor, 0.5 μM depsipeptide substrate, 30° C., competitive inhibition model
T1 construct: full-length hepatitis C NS3 protease enzyme
Method: [Landro, 1997 #Biochem 36 9340-9348]. […] The solutions were stored at −20° C. between measurements.
The final concentration of DMSO in the assay sample is adjusted to 3.3%. The rate of hydrolysis is corrected for inner filter effects according to published procedures. [Liu, 1999 Analytical Biochemistry 267 331-335]. […] A minimum of two replicates are performed for all measurements.

T1 sequence (P27958 1027-1657, one chain of several): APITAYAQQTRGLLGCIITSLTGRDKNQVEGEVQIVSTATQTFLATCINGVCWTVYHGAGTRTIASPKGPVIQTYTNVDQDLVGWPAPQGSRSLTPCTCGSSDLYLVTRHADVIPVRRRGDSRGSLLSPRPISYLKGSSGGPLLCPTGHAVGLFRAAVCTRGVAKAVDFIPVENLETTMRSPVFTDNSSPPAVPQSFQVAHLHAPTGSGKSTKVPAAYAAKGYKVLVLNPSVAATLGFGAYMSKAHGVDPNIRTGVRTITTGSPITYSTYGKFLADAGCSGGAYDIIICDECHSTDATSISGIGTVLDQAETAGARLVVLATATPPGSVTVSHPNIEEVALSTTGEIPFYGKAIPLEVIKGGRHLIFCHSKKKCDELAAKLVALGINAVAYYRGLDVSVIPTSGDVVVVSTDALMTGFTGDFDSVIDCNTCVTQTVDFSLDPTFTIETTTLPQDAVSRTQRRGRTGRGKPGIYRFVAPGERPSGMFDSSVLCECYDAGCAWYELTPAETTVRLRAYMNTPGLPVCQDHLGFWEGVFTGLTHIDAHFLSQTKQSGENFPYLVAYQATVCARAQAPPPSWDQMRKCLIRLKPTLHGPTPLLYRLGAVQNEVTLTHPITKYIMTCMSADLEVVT

Compound | EC50 [1] | Ki [2]
COc1ccc2c(O[C@@H]3C[C@H]4C(=O)N[C@]5(C(=O)O)CC5/C=C\CCCCN(N(C)C)C(=O)[C@@H]4C3)cc(-c3ccccc3)nc2c1 (stereo partly shown) [Example 88, 13-Dimethylamino-17-(7-methoxy-2-phenyl-quinolin-4-yloxy-2,14-dioxo-3,13-diaza-tricyclo[13.3.0.0*4,6*]octadec-7-ene-4-carboxylic acid] | 1000 to 10000 nM | 100 to 2000 nM
COc1ccc2c(O[C@@H]3C[C@H]4C(=O)N[C@]5(C(=O)NS(=O)(=O)C6CC6)CC5/C=C\CCCCN(N(C)C)C(=O)[C@@H]4C3)cc(-c3ccccc3)nc2c1 (stereo partly shown) [Example 89, Cyclopropanesulphonic acid [13-dimethylamino-17-(7-methoxy-2-phenyl-quinolin-4-yloxy)-2,14-dioxo-3,13-diaza-tricyclo[13.3.0.0*4,6*]octadec-7-ene-4-carbonyl]-amide] | 0.5 to 49 nM | 0.1 to 4.9 nM
